Experimental data: US20240319167A1, “CELL INFORMATION ACQUISITION METHOD, AND PROGRAM” (CANON KABUSHIKI KAISHA, priority 2023, published 2024)

Legend:
[1] = tested on: NCI-H322 cells; test: Autofluorescence luminance ratio (G component/B component) after adding metabolism changing reagent; format: cell-based, human; settings: antimycin A 1 μM where added, incubated an hour after D-glucose removal, FIG. 3
Protocol: (§1) Human lung cancer cells NCI-H322 (KAC Co., Ltd.) were cultured in a culture medium 103 for cell culture (KAC Co., Ltd.). Human lung cancer cells COR-L23 (KAC Co., Ltd.) were cultured in a culture medium 103 for cell culture (KAC Co., Ltd.). A cell culture vessel was a 35 mm glass bottom dish (IWAKI) for any case. […] The area of a nucleus region was acquired and labelled. […] Average value of G component/Average value of B component was calculated cell by cell and plotted as a box-and-whisker plot (FIG. 3). […] NCI-H322 cells were cultured in a 35 mm glass bottom dish, and COR-L23 cells were cultured in a 35 mm glass bottom dish. […] As negative control, only removal of D-glucose was performed for both NCI-H322 cells and COR-L23 cells to create samples not added with a metabolism changing reagent. An autofluorescence image of each of the samples was captured. Subsequently, nuclear staining and mitochondria staining were performed to stain nuclei and mitochondria, and similarly stained images were captured with an image capturing apparatus.

[2] = tested on: COR-L23 cells; test: as above; format: cell-based, human; settings: antimycin A 1 μM where added, incubated an hour after D-glucose removal, FIG. 3
Protocol: as §1

## O=C[C@H](O)[C@@H](O)[C@H](O)[C@H](O)CO [D-glucose]
[1]
  G component/B component of autofluorescence (365 nm excitation/430 nm long pass filter) versus negative control: no significant difference
[2]
  G component/B component of autofluorescence (365 nm excitation/430 nm long pass filter) versus negative control: no significant difference
